In patent US20240174603A1 (Rappta Therapeutics Oy, priority 2021, published 2024) one finds GI50 data, which are given here for 14 compounds.

In general, GI50 refers to the concentration that inhibits growth by half.

The subject of the first assay is LNCaP cells. In words: LNCaP cell viability assay (MTS). Type of assay: cell-based. The following applies: Homo sapiens, LNCaP cell line, 48 hours. Summed up: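 LNCaP cells (5000/well) treated 24 h after plating with compound at 1–80 µM for 48 h. Relative cell number read by MTS; GI50 from four-parameter variable-slope log(inhibitor) fit with bottom constrained to zero.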
Compound `CN(C)CC(NS(=O)(=O)c1ccc(OC(F)(F)F)cc1)c1ccc(C(F)(F)F)cc1` (centres unmarked) [Compound 219, N-(2-(dimethylamino)-1-(4-(trifluoromethyl)phenyl)ethyl)-4-(trifluoromethoxy)benzenesulfonamide] returned a 50% growth inhibitory concentration (GI50) of 43.6 µM. That is a double-digit micromolar value.

On to `CN(C)CC(NS(=O)(=O)c1ccc([N+](=O)[O-])c(OC(F)(F)F)c1)c1ccc(Cl)c(Cl)c1` (centres unmarked) [Compound 222, N-(1-(3,4-dichlorophenyl)-2-(dimethylamino)ethyl)-4-nitro-3-(trifluoromethoxy)benzenesulfonamide], for which the GI50 was found to be 1.34 µM. Same read-out and setting: the same measure for `CN(C)CC(NS(=O)(=O)c1cccc(OC(F)(F)F)c1[N+](=O)[O-])c1ccc(Cl)c(Cl)c1` (centres unmarked) [Compound 223, N-(1-(3,4-dichlorophenyl)-2-(dimethylamino)ethyl)-2-nitro-3-(trifluoromethoxy)benzenesulfonamide]: 57.4 µM.

Staying with this assay, now noted: Homo sapiens, LNCaP, 48 h, LNCaP cell line.
`CN(C)CC(NS(=O)(=O)c1ccc(OC2CCCC2)cc1)c1ccc(Cl)c(Cl)c1` (centres unmarked) [Compound 210, 4-(cyclopentyloxy)-N-(1-(3,4-dichlorophenyl)-2-(dimethylamino)ethyl)benzenesulfonamide] gave a GI50 of 12.5 µM.

For the compound `CN(C)CC(NS(=O)(=O)c1ccc(Oc2ccccn2)cc1)c1ccc(Cl)c(Cl)c1` (centres unmarked) [Compound 211, N-(1-(3,4-dichlorophenyl)-2-(dimethylamino)ethyl)-4-(pyridin-2-yloxy)benzenesulfonamide], the concentration for 50% growth inhibition (GI50) came to 75 µM.

`CCc1ccc(S(=O)(=O)NC(CN(C)C)c2ccc(Cl)c(Cl)c2)cc1` (centres unmarked) [Compound 212, N-(1-(3,4-dichlorophenyl)-2-(dimethylamino)ethyl)-4-ethylbenzenesulfonamide] displayed a GI50 of 34.6 µM.

With `CC(C)c1ccc(S(=O)(=O)NC(CN(C)C)c2ccc(Cl)c(Cl)c2)cc1` (centres unmarked) [Compound 213, N-(1-(3,4-dichlorophenyl)-2-(dimethylamino)ethyl)-4-isopropylbenzenesulfonamide], the GI50 turned out to be 25.2 µM. The GI50 values of the last two compounds are within 1.5-fold of each other. Compound `CCCCc1ccc(S(=O)(=O)NC(CN(C)C)c2ccc(Cl)c(Cl)c2)cc1` (centres unmarked) [Compound 214, 4-butyl-N-(1-(3,4-dichlorophenyl)-2-(dimethylamino)ethyl)benzenesulfonamide] came in with a GI50 of 11.3 µM. The same measure, in the same setting: the same measure for `CCCCCc1ccc(S(=O)(=O)NC(CN(C)C)c2ccc(Cl)c(Cl)c2)cc1` (centres unmarked) [Compound 215, N-(1-(3,4-dichlorophenyl)-2-(dimethylamino)ethyl)-4-pentylbenzenesulfonamide]: 7.5 µM. Still for that read-out and setting: the same measure for `CN(C)CC(NS(=O)(=O)c1ccc(C2=CCOCC2)cc1)c1ccc(Cl)c(Cl)c1` (centres unmarked) [Compound 216, N-(1-(3,4-dichlorophenyl)-2-(dimethylamino)ethyl)-4-(3,6-dihydro-2H-pyran-4-yl)benzenesulfonamide]: 8.18 µM; for `CN(C)CC(NS(=O)(=O)c1ccc(Cl)c(F)c1)c1ccc(Cl)c(Cl)c1` (centres unmarked) [Compound 217, 4-chloro-N-(1-(3,4-dichlorophenyl)-2-(dimethylamino)ethyl)-3-fluorobenzenesulfonamide]: 49.5 µM; for `CN(C)CC(NS(=O)(=O)c1ccc(-c2ccccn2)cc1)c1ccc(Cl)c(Cl)c1` (centres unmarked) [Compound 218, N-(1-(3,4-dichlorophenyl)-2-(dimethylamino)ethyl)-4-(pyridin-2-yl)benzenesulfonamide]: 43.7 µM.

In turn, `CN(C)CC(NS(=O)(=O)c1ccc(Oc2cccc(F)c2)cc1)c1ccc(Cl)c(Cl)c1` (centres unmarked) [Compound 220, N-(1-(3,4-dichlorophenyl)-2-(dimethylamino)ethyl)-4-(3-fluorophenoxy)benzenesulfonamide] had a GI50 of 21.1 µM.

The compound `CN(C)CC(NS(=O)(=O)c1ccc(Oc2ccc(F)cc2)cc1)c1ccc(Cl)c(Cl)c1` (centres unmarked) [Compound 221, N-(1-(3,4-dichlorophenyl)-2-(dimethylamino)ethyl)-4-(4-fluorophenoxy)benzenesulfonamide] displayed a GI50 of 26.6 µM.
